Among the data in ChEMBL document CHEMBL4673228, “Futunamine, a Pyrrole-Imidazole Alkaloid from the Sponge Stylissa aff. carteri Collected off the Futuna Islands” (J Nat Prod, 2020) are inhibition and Activity values, retold here.

The source made the active and inactive calls. No cut-off for these calls is given here.

Data set [1] has as its system BV-2. The experiment in a line: Inhibition of LPS-induced NO production in mouse BV-2 cells at 0.1 to 1 uM preincubated for 1 hrs followed by LPS-stimulation and measured after 24 hrs by Griess reagent based spectrophotometric assay. It is filed as functional, cell-based. The conditions noted are these: dose 0.1-1 µM. Background: Griess reagent forms a coloured azo dye with nitrite.

Data set [2] concerns SH-SY5Y. The experiment in a line: Neuroprotective activity against TBHP-induced human SH-SY5Y cells assessed as decrease in ROS production at 0.001 to 10 uM after 6 hrs by DCFH-DA dye based spectrophotometric assay relative to control. It is filed as functional. More on the design: scale not given: the % may be the effect or the level left. The conditions noted are these: dose 0.001-10 µM.

Data set [3] deals with BV-2. In words: Cytotoxicity against mouse BV-2 cells assessed as reduction in cell viability at 0.001 to 10 uM after 24 hrs by MTT assay. Type of data set: cell-based. The conditions noted are these: bv-2, 24 h, dose 0.001-10 µM. (In general: Tetrazolium dyes change colour on reduction, which living cells bring about.)
Data set [4] has as its system SH-SY5Y. In words: Cytotoxicity against human SH-SY5Y cells assessed as reduction in cell viability at 0.001 to 10 uM after 24 hrs by MTT assay. Type of data set: cell-based. The conditions noted are these: dose 0.001-10 µM.
The subject of data set [5] is SH-SY5Y. In words: Neuroprotective activity against TBHP-induced cytotoxicity in human SH-SY5Y cells assessed as increase in cell viability at 10 uM after 6 hrs by MTT assay. Type of data set: functional, cell-based.
Data set [6] has as its system SH-SY5Y. In words: Neuroprotective activity against TBHP-induced human SH-SY5Y cells assessed as decrease in ROS production at 1 uM after 6 hrs by DCFH-DA dye based spectrophotometric assay relative to control. Type of data set: functional. More on the design: scale not given: the % may be the effect or the level left.
Data set [7] concerns SH-SY5Y. In words: Neuroprotective activity against TBHP-induced cytotoxicity in human SH-SY5Y cells assessed as increase in cell viability at 0.001 uM after 6 hrs by MTT assay. Type of data set: functional, cell-based.

In the case of `NC1=N[C@]2([C@H](O)N1)[C@@H](Cl)[C@H](CNC(=O)c1cc(Br)c(Br)[nH]1)[C@H]1CN3C(=O)c4cccn4[C@@H]4N=C(N)N[C@@]43[C@@H]12.O=C(O)C(F)(F)F.O=C(O)C(F)(F)F`, in the data set with BV-2 [1], the inhibition entry is “Active”. Also, the Activity in the data set on SH-SY5Y [2] is reported as 35%; in the data set on BV-2 [3] it was “Non-Toxic”; in the data set on SH-SY5Y [4] it was “Non-Toxic”.

Regarding `Nc1nc([C@H]2[C@H](CNC(=O)c3cc(Br)c(Br)[nH]3)/C(=C\CNC(=O)c3ccc[nH]3)c3cnc(N)n32)c[nH]1`, the Activity is listed as 35% in the data set with SH-SY5Y [2], “Non-Toxic” with BV-2 [3] and “Non-Toxic” in the data set on SH-SY5Y [4]. Moreover, the outcome in the data set on SH-SY5Y [5] was Active.

For `Nc1nc(/C=C/CNC(=O)c2cc(Br)c[nH]2)c[nH]1`, in the data set on BV-2 [1], the inhibition result is “Active”. In addition, the Activity with SH-SY5Y [6] is reported as above 25%; with BV-2 [3] it was “Non-Toxic”; in the data set with SH-SY5Y [4], “Non-Toxic”. Also, the outcome with SH-SY5Y [7] was Active.

Consider `C[C@]1(COC(=O)c2cc(Br)c[nH]2)C[C@@H](C(=O)O)N=CN1` [MANZACIDIN A], for which the Activity is reported as above 25% with SH-SY5Y [6], “Non-Toxic” in the data set with BV-2 [3] and “Non-Toxic” in the data set on SH-SY5Y [4]. Further, the result in the data set with SH-SY5Y [7] was Active.

Take `NC1=N[C@]2([C@H](O)N1)[C@@H](Cl)[C@H](CNC(=O)c1cc(Br)c(Br)[nH]1)[C@H]1CN3C(=O)c4[nH]ccc4[C@@H]4N=C(N)N[C@@]43[C@@H]12.O=C(O)C(F)(F)F.O=C(O)C(F)(F)F`: the Activity result in the data set on BV-2 [3] and with SH-SY5Y [4] was “Non-Toxic” each time.

For the molecule `Nc1ncc(/C=C/CNC(=O)c2cc(Br)c(Br)[nH]2)[nH]1` [OROIDIN], the result in the data set with SH-SY5Y [7] was Active. For the same molecule, the Activity result in the data set with BV-2 [3] and in the data set on SH-SY5Y [4] was “Non-Toxic” in each case.
